Experimental data reported in patent publication US7208142B2, “Indanylidene compounds” (Symrise GmbH & Co. KG, priority 2000, dated 2007).

Experiments:
[1] = UV absorption of the compounds (E1/1 at λmax); assay type: physicochemical
[2] = Photostability: irradiation in a Suntester, concentration decrease of the UV filters; assay type: physicochemical
Description: The values give the concentration decrease of the UV filters in percentage following irradiation (dose in J/cm^2).

[3] = formulation Example 1, 72 J/cm^2, 765 W/m^2
[4] = formulation Example 1, 144 J/cm^2, 765 W/m^2

λmax [1] | SMILES | concentration decrease of the UV filter following irradiation [2, 3] | concentration decrease of the UV filter following irradiation [2, 4] | other results
340 nm | COc1c(C)cc2c(c1C)C(C)(C)C/C2=C(/C#N)C(=O)C(C)(C)C [Example 2, 2-(5-Methoxy-3,3,4,6-tetramethyl-1-indanylidene)-4,4-dimethyl-3-oxo-pentanonitrile] |  |  | 
342 nm | Cc1cc2c(cc1C)C(C)(C)C/C2=C(/C#N)C(=O)C(C)(C)C [Example 3, 2-(3,3,5,6-tetramethyl-1-indanylidene)-4,4-dimethyl-3-oxo-pentanonitrile] |  |  | 
335/316 | Cc1ccc2c(c1)/C(=C(\C#N)C(=O)C(C)(C)C)CC2(C)C [Example 4, 2-(3,3,6-trimethyl-1-indanylidene)-4,4-dimethyl-3-oxo-pentanonitrile] |  |  | E1/1 (specific extinction at λmax) [1]: 588/550
 | CCCOC(=O)/C(C#N)=C1\CC(C)(C)c2cc(OC)c(OC)cc21 [Example A1] | 10% | 13% | concentration decrease of the UV filter following irradiation ([2]; combination A1 + OMC, formulation Example 12, 72 J/cm^2): 22%; concentration decrease of the UV filter following irradiation ([2]; combination A1 + OMC, formulation Example 12, 144 J/cm^2): 37%
 | COC(=O)/C(C#N)=C1\CC(C)(C)c2cc(OC)c(OCC(C)C[Si](C)(O[Si](C)(C)C)O[Si](C)(C)C)cc21 (stereo not shown) [Example A2] | 1% | 6% | concentration decrease of the UV filter following irradiation ([2]; combination A2 + OMC, formulation Example 12, 72 J/cm^2): 14%; concentration decrease of the UV filter following irradiation ([2]; combination A2 + OMC, formulation Example 12, 144 J/cm^2): 26%
 | COc1cc2c(cc1OC)C(C)(C)C/C2=C(/C#N)C(=O)C(C)(C)C [Example B1] | 2% | 3% | concentration decrease of the UV filter following irradiation ([2]; combination B1 + OMC, formulation Example 12, 72 J/cm^2): 2%; concentration decrease of the UV filter following irradiation ([2]; combination B1 + OMC, formulation Example 12, 144 J/cm^2): 3%

SMILES | λmax [1] | concentration decrease of the UV filter following irradiation [2, 3] | concentration decrease of the UV filter following irradiation [2, 4] | other results
COc1cc2c(cc1OC)C(C)(C)C/C2=C(/C#N)C(=O)C(C)(C)C [Example 1, 2-(5,6-Dimethoxy-3,3-dimethyl-1-indanylidene)-4,4-dimethyl-3-oxo-pentanonitrile] | 373 nm |  |  | 
COc1cc2c(cc1OC(C)=O)/C(=C(\C#N)C(=O)C(C)(C)C)CC2(C)C [Example 8, 2-(6-Acetoxy-3,3-dimethyl-5-methoxy-1-indanylidene)-4,4-dimethyl-3-oxo-pentanonitrile] | 355/302 |  |  | E1/1 (specific extinction at λmax) [1]: 420/280
